Experimental data from ChEMBL document CHEMBL1201862, “PubChem BioAssay data set” (2004).
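48-hour exposure; five concentrations; linearly interpolated endpoints. At the GI50, growth is halved.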 Activity calls are given as the source filed them. Cut-off read from the data, not from the text of the source: active = GI50 up to about 1.1 µM and inactive = higher.

Experiments:
Assay in all cases: NCI-60 cell line screen, 48 h
PC-3 = tested on: PC-3
A498 = tested on: A498
HCT-116 = tested on: HCT-116
HCT-15 = tested on: HCT-15
HOP-92 = tested on: HOP-92
SK-MEL-5 = tested on: SK-MEL-5
SNB-19 = tested on: SNB-19
SNB-75 = tested on: SNB-75
SW-620 = tested on: SW-620
SF-295 = tested on: SF-295
RPMI-8226 = tested on: RPMI-8226
UO-31 = tested on: UO-31
TK-10 = tested on: TK-10
K562 = tested on: K562
IGROV-1 = tested on: IGROV-1
OVCAR-3 = tested on: OVCAR-3
SN12C = tested on: SN12C
MOLT-4 = tested on: MOLT-4
HT-29 = tested on: HT-29
SK-MEL-28 = tested on: SK-MEL-28

## COC1=CC(=O)c2c(c(COP(=O)(N(C)CCBr)N(C)CCBr)cn2C)C1=O
PC-3
  GI50: 0.643 µM (active)
A498
  GI50: 0.279 µM (active)
HCT-116
  GI50: < 0.01 µM (active)
HCT-15
  GI50: < 0.0234 µM
HOP-92
  GI50: 0.107 µM (active)
SK-MEL-5
  GI50: 0.0836 µM (active)
SNB-19
  GI50: 0.141 µM (active)
SNB-75
  GI50: 0.0826 µM (active)
SW-620
  GI50: < 0.0109 µM (active)
SF-295
  GI50: < 0.01 µM (active)
RPMI-8226
  GI50: 0.0323 µM (active)
UO-31
  GI50: < 0.0261 µM (active)
TK-10
  GI50: 0.17 µM (active)
K562
  GI50: 0.0398 µM (active)
IGROV-1
  GI50: 1.17 µM (inactive)
OVCAR-3
  GI50: 0.226 µM (active)
SN12C
  GI50: < 0.01 µM (active)
MOLT-4
  GI50: < 0.01 µM (active)
HT-29
  GI50: < 0.0219 µM (active)
SK-MEL-28
  GI50: 0.141 µM (active)

## CCN(CC)CCN1C(=O)c2cccc3cc(N)cc(c23)C1=O
PC-3
  GI50: 16.1 µM (inactive)
A498
  GI50: 19.1 µM (inactive)
HCT-116
  GI50: 4.16 µM (inactive)
HCT-15
  GI50: 5.43 µM
HOP-92
  GI50: 35.8 µM (inactive)
SK-MEL-5
  GI50: 12.9 µM (inactive)
SNB-19
  GI50: 13.6 µM (inactive)
SNB-75
  GI50: 15.8 µM (inactive)
SW-620
  GI50: 4.91 µM (inactive)
SF-295
  GI50: 9.12 µM (inactive)
RPMI-8226
  GI50: 7.35 µM (inactive)
UO-31
  GI50: 5.89 µM (inactive)
TK-10
  GI50: 17.9 µM (inactive)
K562
  GI50: 5.98 µM (inactive)
IGROV-1
  GI50: 7.59 µM (inactive)
OVCAR-3
  GI50: 12.7 µM (inactive)
SN12C
  GI50: 4.31 µM (inactive)
MOLT-4
  GI50: 3.46 µM (inactive)
HT-29
  GI50: 3.24 µM (inactive)
SK-MEL-28
  GI50: 19.3 µM (inactive)

## Oc1ccc(Cl)cc1Cc1cc(Cl)cc(Cc2cc(Cl)ccc2O)c1O
PC-3
  GI50: 2.45 µM (inactive)
A498
  GI50: 1.46 µM (inactive)
HCT-116
  GI50: 2.28 µM (inactive)
HCT-15
  GI50: 2.54 µM
HOP-92
  GI50: 1.26 µM (inactive)
SK-MEL-5
  GI50: 1.11 µM (active)
SNB-19
  GI50: 2.56 µM (inactive)
SNB-75
  GI50: 1.93 µM (inactive)
SW-620
  GI50: 3.29 µM (inactive)
SF-295
  GI50: 2.29 µM (inactive)
RPMI-8226
  GI50: 0.91 µM (active)
UO-31
  GI50: 3.01 µM (inactive)
TK-10
  GI50: 2.72 µM (inactive)
K562
  GI50: 1.63 µM (inactive)
IGROV-1
  GI50: 3.2 µM (inactive)
OVCAR-3
  GI50: 2.24 µM (inactive)
SN12C
  GI50: 2.4 µM (inactive)
MOLT-4
  GI50: 2.34 µM (inactive)
HT-29
  GI50: 3 µM (inactive)
SK-MEL-28
  GI50: 3.24 µM (inactive)

## COc1ccc(OC)c(NC2=NCCO2)c1
PC-3
  GI50: > 100 µM (inactive)
A498
  GI50: > 100 µM (inactive)
HCT-116
  GI50: > 100 µM (inactive)
HCT-15
  GI50: > 100 µM
HOP-92
  GI50: < 0.01 µM (active)
SK-MEL-5
  GI50: > 100 µM (inactive)
SNB-19
  GI50: 10.6 µM (inactive)
SNB-75
  GI50: > 100 µM (inactive)
SW-620
  GI50: 13.6 µM (inactive)
SF-295
  GI50: > 100 µM (inactive)
RPMI-8226
  GI50: > 100 µM (inactive)
UO-31
  GI50: > 100 µM (inactive)
TK-10
  GI50: > 100 µM (inactive)
K562
  GI50: > 100 µM (inactive)
IGROV-1
  GI50: > 100 µM (inactive)
OVCAR-3
  GI50: > 100 µM (inactive)
SN12C
  GI50: > 100 µM (inactive)
MOLT-4
  GI50: > 100 µM (inactive)
HT-29
  GI50: 62.2 µM (inactive)
SK-MEL-28
  GI50: > 100 µM (inactive)

## O=[N+]([O-])c1ccc(CSc2c3ccccc3nc3ccccc23)cc1
PC-3
  GI50: 7.43 µM (inactive)
A498
  GI50: 23.7 µM (inactive)
HCT-116
  GI50: 2.78 µM (inactive)
HCT-15
  GI50: 3.91 µM
HOP-92
  GI50: 3.75 µM (inactive)
SK-MEL-5
  GI50: 16.7 µM (inactive)
SNB-19
  GI50: 15.8 µM (inactive)
SNB-75
  GI50: 19 µM (inactive)
SW-620
  GI50: 2.88 µM (inactive)
SF-295
  GI50: 21.1 µM (inactive)
RPMI-8226
  GI50: 2.85 µM (inactive)
UO-31
  GI50: 5.62 µM (inactive)
TK-10
  GI50: 6.62 µM (inactive)
K562
  GI50: 5.01 µM (inactive)
IGROV-1
  GI50: 2.82 µM (inactive)
OVCAR-3
  GI50: 4.53 µM (inactive)
SN12C
  GI50: 3.52 µM (inactive)
MOLT-4
  GI50: 2.31 µM (inactive)
HT-29
  GI50: 2.28 µM (inactive)
SK-MEL-28
  GI50: 4.67 µM (inactive)

## Cc1cc(Cl)cc2c1NC(=O)C2(O)CC(=O)c1ccco1 (stereo not given)
PC-3
  GI50: > 100 µM (inactive)
A498
  GI50: 62.7 µM (inactive)
HCT-116
  GI50: > 77.3 µM (inactive)
HCT-15
  GI50: > 100 µM
HOP-92
  GI50: > 100 µM (inactive)
SK-MEL-5
  GI50: 22.2 µM (inactive)
SNB-19
  GI50: > 100 µM (inactive)
SNB-75
  GI50: 55.1 µM (inactive)
SW-620
  GI50: > 78.2 µM (inactive)
SF-295
  GI50: > 73.3 µM (inactive)
RPMI-8226
  GI50: 47 µM (inactive)
UO-31
  GI50: > 100 µM (inactive)
TK-10
  GI50: > 100 µM (inactive)
K562
  GI50: 27.1 µM (inactive)
IGROV-1
  GI50: 99.3 µM (inactive)
OVCAR-3
  GI50: 52.4 µM (inactive)
SN12C
  GI50: > 85.1 µM (inactive)
MOLT-4
  GI50: 0.92 µM (active)
HT-29
  GI50: > 79.6 µM (inactive)
SK-MEL-28
  GI50: > 70 µM (inactive)
